SMILES strings stand for the structures.

Data on four compounds can be found in patent US9670217B2, “Process for preparing chlorins and their pharmaceutical uses” (UNIVERSIDADE DE COIMBRA, priority 2008, dated 2017).

Data set [1] has as its system S91I3 (mouse melanoma). Kind of data set: Cell photosensitization, 748 nm diode laser, resazurin. The data set is classed as cell-based. As to conditions: 6 J/cm^2 diode laser irradiation at 28.5 mW. As for the experimental part:
(§1) The cell lines employed in laser irradiation were the HT-29 (human colon carcinoma), PC-3 (human prostate carcinoma), SW2 (human small cell lung cancer), A-549 (human non-small cell lung cancer). S91/I3 (mouse melanoma) and CT26 (mouse colon carcinoma). They were used both for cytotoxicity and photocytotoxicity experiments. PC-3. SW2 and S91113 cells were cultured in RPMI-1640 medium (Sigma-Aldrich, Steinheim, Germany) and HT-29, A-549 and CT26 cells were cultured in Dulbecco's Modified Eagle Medium (DMEM) (Cambrex Bioscience, Verviers, Belgium). Both cell culture mediums were supplemented with 10% heat-inactivated Fetal Bovine Serum (FBS) (Cambrex Bioscience, Verviers, Belgium) and 100 IU/ml penicillin-100 μg/ml streptomycin (Cambrex Bioscience, Verviers, Belgium). […] For the in vitro studies, cells at 85-90% confluence, were detached with Trypsin-Versene-EDTA solution (Cambrex Bioscience, Verviers, Belgium), counted and seeded in flat-bottom 96-well plates at the desired densities.
(§2) Cell viability assay. In the end of the experiences cell viability was evaluated by the resazurin reduction assay. […] The absorbance values of each well were measured at 540 nm and 630 nm using a microplate reader Multiskan Ex (Thermo-Electron Corporation, Vartaa, Finland).
Cell photosensitization. […] Cell viability was evaluated approximately 24 h after the irradiation.
A general note: The colour change of resazurin is a common sign of viable cells or microbes.

The test system of data set [2] is CT26 (mouse colon carcinoma). Kind of data set: Cytotoxicity in the dark, resazurin assay. It counts as cell-based. As for the experimental part: as §1, with “Belgium).” for “Belgium). Both cell culture mediums were supplemented with 10% heat-inactivated Fetal Bovine Serum (FBS) (Cambrex Bioscience, Verviers, Belgium) and 100 IU/ml penicillin-100 μg/ml streptomycin (Cambrex Bioscience, Verviers, Belgium).”
as §2
Cytotoxicity. […] After the incubation the cell viability was evaluated. […] Cytotoxicity was quantified by expressing cell death relatively to untreated cells (% of control cells). […]

Data set [3] is described as follows: In vivo toxicity in the dark. On the set-up: species or system DBA/2 mice. Conditions: for sensitivity to light: first 6 days. The text has this:
The mice used in the present study were form two sources. Dark toxicity, biodistribution and farmacokinetic studies employed DBA/2 mice, weighing 20-30 g, from the animal breeding facility at the Faculty of Biochemistry, Biophysics and Biotechnology, Jagiellonian University, Krakow. The mice were kept on a standard laboratory diet with free access to drinking water. The use of such animals for experimental purposes was approved by the Jagiellonian University Committee for Ethics of Experiments on Animals (decision No. 384/99). Such mice were also employed in PDT.
The mice were divided into the following experimental groups:
The solutions of Luzitin-Cl (0.5 ml) were injected subcutaneously and for 30 days the animals were closely observed. […] They manifested such sensitivity by moving away from light sources directly pointed at them. […] After 30 days the animals were anaesthetized using Morbital (Biowet, Poland), their organs and tissue samples were excised, and blood morphology as well as histology of selected organs tests was performed.

Data set [4] in a line: Bacteriochlorin pharmacokinetics and biodistribution following ip administration, S91 tumor-bearing mice. Conditions: 10 mg/kg ip.
The test system of data set [5] is CT26 mouse colon carcinoma. Kind of data set: PDT of implanted CT26 tumors. The data set is classed as in vivo, Balb/C mice. Conditions: 10 mg/kg i.p. in PEG400, 24 h post-injection, 748 nm, 132 J/cm^2. An excerpt:
The other mice were Balb/C weighing 20-25 g, from the animal breeding facility of Charles River Laboratories (Barcelona). The mice were kept on a standard laboratory diet with free access to drinking water. The use of such animals for experimental purposes was approved by the Board of Centro de Neurociências e Biologia Celular (Coimbra).
The tumors grew to reach 5 mm in diameter in about one week after the implantation. No spontaneous necrosis was observed. The treatment was initiated when the tumor attained 5 mm in diameter in each animal. The day the tumors reached the treatment size, the mice were injected via i.p. with a dose of 10 mg/kg of Luzitin-FMet in PEG400. At 24 h post-injection, four mice were anesthetized with ketamine and xylazine, and treated with the Hamamatsu 748 nm diode laser described before, at a fluence rate of 100 mW/cm^2 for 22 minutes (total fluence of 132 J/cm^2). Four other mice were not treated and served as control. The mice were checked daily, the tumors were measured using two orthogonal measurements L and W (perpendicular to L) and the volumes were calculated using the formula V=L×W^2/2 and recorded.

In the case of `O=S(=O)(O)c1ccc(Cl)c(-c2c3nc(c(-c4c(Cl)ccc(S(=O)(=O)O)c4Cl)c4ccc([nH]4)c(-c4c(Cl)ccc(S(=O)(=O)O)c4Cl)c4nc(c(-c5c(Cl)ccc(S(=O)(=O)O)c5Cl)c5ccc2[nH]5)CC4)CC3)c1Cl` [Luzitin-Cl2, 5,10,15,20-tetrakis(2,6-dichloro-3-sulfonylphenyl)bacteriochlorin], the “concentration of sensitizer required to kill 90% of cells (LD90)” value in data set [1] came to 40 µM.
`CCNS(=O)(=O)c1ccc(Cl)c(-c2c3nc(c(-c4c(Cl)ccc(S(=O)(=O)NCC)c4Cl)c4ccc([nH]4)c(-c4c(Cl)ccc(S(=O)(=O)NCC)c4Cl)c4nc(c(-c5c(Cl)ccc(S(=O)(=O)NCC)c5Cl)c5ccc2[nH]5)CC4)CC3)c1Cl` [Luzitin-Cl2Et, 5,10,15,20-tetrakis(2,6-dichloro-3-N-ethylsulfamoylphenyl)bacteriochlorin]: in data set [2], the “highest concentration that causes relatively no effect in viability in the dark” value was determined as 50 µM.
As to `O=S(=O)(O)c1ccc(Cl)c(-c2c3nc(c(-c4cc(S(=O)(=O)O)ccc4Cl)c4ccc([nH]4)c(-c4cc(S(=O)(=O)O)ccc4Cl)c4nc(c(-c5cc(S(=O)(=O)O)ccc5Cl)c5ccc2[nH]5)CC4)CC3)c1` [Luzitin-Cl, 5,10,15,20-tetrakis(2-chloro-5-sulfonylphenyl)bacteriochlorin], the sensitivity to light result in data set [3] (15 mg/kg subcutaneous, some animals) is recorded as “slight sensitivity”. Also, the sensitivity to light entry in data set [3] (20 mg/kg subcutaneous) is on record as “revealed sensitivity to the light”. Besides, the body mass changes result in data set [3] (2-20 mg/kg subcutaneous, 30 days) is “no significant mass changes were observed”. Besides, the “blood morphology and histology of selected organs” value in data set [3] (2-20 mg/kg subcutaneous, after 30 days) is recorded as “No changes were observed in the blood or in organs”. In data set [4], the “accumulation in the skin” value is on record as “negligible” and the “time to clearance from most of the organs” value is listed as 24 h. The “concentration in tumor relative to muscle” value in data set [4] (one day after administration) is 3 times.
For `CNS(=O)(=O)c1ccc(F)c(-c2c3nc(c(-c4cc(S(=O)(=O)NC)ccc4F)c4ccc([nH]4)c(-c4cc(S(=O)(=O)NC)ccc4F)c4nc(c(-c5cc(S(=O)(=O)NC)ccc5F)c5ccc2[nH]5)CC4)CC3)c1` [Luzitin-FMet, 5,10,15,20-tetrakis(2-fluoro-5-N-methylsulfamoylphenyl)bacteriochlorin], the “tumor size after PDT vs non-irradiated controls” value in data set [5] is “smaller than the average size of the control animals and in one case the tumor completely disappeared”.
